# Experimental data reported in patent US11773078B2, “Furin inhibitors” (Glaxosmithkline Intellectual Property Development Limited, priority 2018, dated 2023).
# Assays:
# [1] = target: T1, Furin (108-574-Tev-Flag-His) enzyme (Homo sapiens, UniProt P09958); test: Furin enzyme assay; assay type: biochemical; settings: for IC50: read-out: furin enzyme pIC50 (converted)
# T1 construct: Furin (108-574-Tev-Flag-His) enzyme was expressed and purified from CHO cells; TEV cleavage site (C); FLAG (C); His (C); made in house; host or cells: CHO cells
# In short: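 CHO-expressed, purified furin construct at 40 pM in 100 mM HEPES pH7.5, 1 mM CaCl2, 0.005% Triton X-100. Eleven-point 1:3 series, 0.00017–10 μM final, incubated 2 h at room temperature and read on Envision. pXC50 from four-parameter fit.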
# [2] = target: T2, furin (endogenous protease) in U20S cells (Homo sapiens, UniProt P09958); test: Furin cell-based assay (image-based, Golgi-targeted GFP with BMP10 furin/PCSK cleavage site); settings: 24-hour incubation, read-out: furin golgi cell pXC50 (converted);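 further: Read-out is mean GFP fluorescence of Golgi puncta per cell by high-content imaging, retained when furin inhibited, over an eleven-point 0.00017–10 µM series, four-parameter fit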
# T2 construct: the endogenous protease cleaves GFP; endogenous in cells; host or cells: U2OS cells transduced with a BacMam reporter
# T2 sequence (P09958 108-794): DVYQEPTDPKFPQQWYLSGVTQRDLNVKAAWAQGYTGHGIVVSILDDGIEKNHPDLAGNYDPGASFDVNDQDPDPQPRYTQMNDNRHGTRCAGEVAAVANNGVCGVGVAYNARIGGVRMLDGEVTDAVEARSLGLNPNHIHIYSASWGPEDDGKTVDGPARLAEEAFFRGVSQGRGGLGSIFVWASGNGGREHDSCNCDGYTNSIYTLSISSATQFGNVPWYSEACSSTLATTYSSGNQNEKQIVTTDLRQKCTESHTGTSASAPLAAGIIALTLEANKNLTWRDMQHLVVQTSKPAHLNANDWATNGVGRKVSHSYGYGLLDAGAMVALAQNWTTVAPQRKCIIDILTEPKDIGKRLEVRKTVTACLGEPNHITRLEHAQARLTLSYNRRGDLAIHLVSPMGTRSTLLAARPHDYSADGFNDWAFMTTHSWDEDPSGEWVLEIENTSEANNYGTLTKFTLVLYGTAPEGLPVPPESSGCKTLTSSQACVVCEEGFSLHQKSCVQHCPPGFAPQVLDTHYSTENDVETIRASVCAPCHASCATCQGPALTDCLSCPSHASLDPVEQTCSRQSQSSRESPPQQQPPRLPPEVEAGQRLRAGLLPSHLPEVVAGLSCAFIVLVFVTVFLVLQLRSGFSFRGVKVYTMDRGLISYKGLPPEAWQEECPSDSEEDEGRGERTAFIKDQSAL
# T1 sequence (P09958 108-574): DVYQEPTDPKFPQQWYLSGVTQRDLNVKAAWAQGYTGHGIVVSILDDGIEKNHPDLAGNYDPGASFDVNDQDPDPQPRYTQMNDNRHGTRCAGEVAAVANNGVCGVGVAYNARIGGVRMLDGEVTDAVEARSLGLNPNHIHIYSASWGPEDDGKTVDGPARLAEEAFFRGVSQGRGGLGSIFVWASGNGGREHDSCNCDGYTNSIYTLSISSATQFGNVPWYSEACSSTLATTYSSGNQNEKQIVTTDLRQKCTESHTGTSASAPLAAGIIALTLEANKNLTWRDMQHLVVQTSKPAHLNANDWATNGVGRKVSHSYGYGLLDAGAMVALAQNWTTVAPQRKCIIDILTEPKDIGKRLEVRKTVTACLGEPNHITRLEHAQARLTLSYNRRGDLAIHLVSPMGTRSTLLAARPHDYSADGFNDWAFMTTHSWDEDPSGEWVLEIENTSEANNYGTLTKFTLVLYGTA
Compound,furin enzyme pIC50 [1],EC50 [2] [nM],IC50 [1] [nM]
"CC(=O)N[C@@H]1[C@@H]2CN(Cc3cc(Oc4cnc(N5CCCN(C)CC5)nc4)nc(-c4cc(Cl)cc(Cl)c4)c3)C[C@@H]21 [Example 154, N-((1R,5S,6r)-3-((2-(3,5-dichlorophenyl)-6-((2-(4-methyl-1,4-diazepan-1-yl)pyrimidin-5-yl)oxy)pyridin-4-yl)methyl)-3-azabicyclo[3.1.0]hexan-6-yl)acetamide]",7.8,50.1,–
"CC(=O)CC1CCN(Cc2cc(Oc3cnc(N4CCN(C)CC4)nc3)nc(-c3cc(Cl)cc(Cl)c3)c2)CC1 [Example 155, 1-(1-((2-(3,5-dichlorophenyl)-6-((2-(4-methylpiperazin-1-yl)pyrimidin-5-yl)oxy)pyridin-4-yl)methyl)piperidin-4-yl)propan-2-one]",8.1,15.8,–
"CN1CCCN(c2ccc(Oc3cc(CN4CCC(CC(=O)O)CC4)cc(-c4cc(Cl)cc(Cl)c4)n3)cn2)CC1 [Example 156, 2-(1-((2-(3,5-Dichlorophenyl)-6-((6-(4-methyl-1,4-diazepan-1-yl)pyridin-3-yl)oxy)pyridin-4-yl)methyl)piperidin-4-yl)acetic acid]",8.8,15.8,–
"CC(=O)NCC1CCN(Cc2cc(Oc3ccc(N4CCN(C)CC4)nn3)nc(-c3cc(Cl)cc(Cl)c3)c2)CC1 [Example 157, N-((1-((2-(3,5-dichlorophenyl)-6-((6-(4-methylpiperazin-1-yl)pyridazin-3-yl)oxy)pyridin-4-yl)methyl)piperidin-4-yl)methyl)acetamide]",10.8,1.26,–
"NC1CCN(c2ncc(Oc3cc(CN4CCC(CC(=O)O)CC4)cc(-c4cc(Cl)cc(Cl)c4)n3)cn2)CC1 [Example 158, 2-(1-((2-((2-(4-Aminopiperidin-1-yl)pyrimidin-5-yl)oxy)-6-(3,5-dichlorophenyl)pyridin-4-yl)methyl)piperidin-4-yl)acetic acid]",8.8,79.4,–
"C[C@H]1CN(c2ncc(Oc3cc(CN4CCC(CC(=O)O)CC4)cc(-c4cc(Cl)cc(Cl)c4)n3)cn2)CCN1 [Example 159, (S)-2-(1-((2-(3,5-Dichlorophenyl)-6-((2-(3-methylpiperazin-1-yl)pyrimidin-5-yl)oxy)pyridin-4-yl)methyl)piperidin-4-yl)acetic acid]",8.5,25.1,–
"CC1(C)CN(c2ncc(Oc3cc(CN4CCC(CC(=O)O)CC4)cc(-c4cc(Cl)cc(Cl)c4)n3)cn2)CCN1 [Example 160, 2-(1-((2-(3,5-dichlorophenyl)-6-((2-(3,3-dimethylpiperazin-1-yl)pyrimidin-5-yl)oxy)pyridin-4-yl)methyl)piperidin-4-yl)acetic acid]",8.8,25.1,–
"O=C(O)CC1CCN(Cc2cc(Oc3cnc(N4CC5CNCC5C4)nc3)nc(-c3cc(Cl)cc(Cl)c3)c2)CC1 (stereo not drawn) [Example 161, 2-(1-((2-(3,5-dichlorophenyl)-6-((2-(hexahydropyrrolo[3,4-c]pyrrol-2(1H)-yl)pyrimidin-5-yl)oxy)pyridin-4-yl)methyl)piperidin-4-yl)acetic acid]",8.3,39.8,–
"O=C(O)CC1CCN(Cc2cc(Oc3cnc(N4CC5CC(C4)N5)nc3)nc(-c3cc(Cl)cc(Cl)c3)c2)CC1 [Example 162, 2-(1-((2-((2-(3,6-diazabicyclo[3.1.1]heptan-3-yl)pyrimidin-5-yl)oxy)-6-(3,5-dichlorophenyl)pyridin-4-yl)methyl)piperidin-4-yl)acetic acid]",8.4,79.4,–
"O=C(O)CC1CCN(Cc2cc(Oc3cnc(N4CC5CCC(C4)N5)nc3)nc(-c3cc(Cl)cc(Cl)c3)c2)CC1 [Example 163, 2-(1-((2-((2-(3,8-diazabicyclo[3.2.1]octan-3-yl)pyrimidin-5-yl)oxy)-6-(3,5-dichlorophenyl)pyridin-4-yl)methyl)piperidin-4-yl)acetic acid]",8.7,10,–
"O=C(O)CC1CCN(Cc2cc(Oc3cnc(N4CCNC5(CC5)C4)nc3)nc(-c3cc(Cl)cc(Cl)c3)c2)CC1 [Example 164, 2-(1-((2-((2-(4,7-diazaspiro[2.5]octan-7-yl)pyrimidin-5-yl)oxy)-6-(3,5-dichlorophenyl)pyridin-4-yl)methyl)piperidin-4-yl)acetic acid]",–,25.1,3.98
"NC1(CO)CCN(c2ncc(Oc3cc(CN4CCC(CC(=O)O)CC4)cc(-c4cc(Cl)cc(Cl)c4)n3)cn2)CC1 [Example 165, 2-(1-((2-((2-(4-amino-4-(hydroxymethyl)piperidin-1-yl)pyrimidin-5-yl)oxy)-6-(3,5-dichlorophenyl)pyridin-4-yl)methyl)piperidin-4-yl)acetic acid]",8.4,31.6,–
"O=C(O)CC1CCN(Cc2cc(Oc3ccc(N4CCCNCC4)nc3)nc(-c3cc(Cl)cc(Cl)c3)c2)CC1 [Example 166, 2-(1-((2-((6-(1,4-Diazepan-1-yl)pyridin-3-yl)oxy)-6-(3,5-dichlorophenyl)pyridin-4-yl)methyl)piperidin-4-yl)acetic acid]",8.5,63.1,–
"CC(=O)NCC1CCN(Cc2cc(Oc3cnc(N4CCN(CCS(C)(=O)=O)CC4)nc3)cc(-c3cc(Cl)cc(Cl)c3)c2)CC1 [Example 167, N-((1-((3′,5′-Dichloro-5-((2-(4-(2-(methylsulfonyl)ethyl)piperazin-1-yl)pyrimidin-5-yl)oxy)-[1,1′-biphenyl]-3-yl)methyl)piperidin-4-yl)methyl)acetamide]",8.3,50.1,–
"CC(=O)NCC1CCN(Cc2cc(Oc3cnc(N4CCN(CCC(=O)O)CC4)nc3)cc(-c3cc(Cl)cc(Cl)c3)c2)CC1 [Example 168, 3-(4-(5-((5-((4-(Acetamidomethyl)piperidin-1-yl)methyl)-3′,5′-dichloro-[1,1′-biphenyl]-3-yl)oxy)pyrimidin-2-yl)piperazin-1-yl)propanoic acid]",9.3,25.1,–
"CC(=O)NCC1CCN(Cc2cc(Oc3ccc(N4CCN(CCC(=O)O)CC4)nn3)nc(-c3cc(Cl)cc(Cl)c3)c2)CC1 [Example 169, 3-(4-(6-((4-((4-(acetamidomethyl)piperidin-1-yl)methyl)-6-(3,5-dichlorophenyl)pyridin-2-yl)oxy)pyridazin-3-yl)piperazin-1-yl)propanoic acid]",–,1260,0.0316
"CC(=O)NCC1CCN(Cc2cc(Oc3cnc(N4CCN(CCC(N)=O)CC4)nc3)cc(-c3cc(Cl)cc(Cl)c3)c2)CC1 [Example 170, 3-(4-(5-((5-((4-(acetamidomethyl)piperidin-1-yl)methyl)-3′,5′-dichloro-[1,1′-biphenyl]-3-yl)oxy)pyrimidin-2-yl)piperazin-1-yl)propanamide]",–,12.6,0.794
"CNC(=O)NCC1CCN(Cc2cc(Oc3cnc(N4CCN(CCCO)CC4)nc3)nc(-c3cc(Cl)cc(Cl)c3)c2)CC1 [Example 171, 1-((1-((2-(3,5-dichlorophenyl)-6-((2-(4-(3-hydroxypropyl)piperazin-1-yl)pyrimidin-5-yl)oxy)pyridin-4-yl)methyl)piperidin-4-yl)methyl)-3-methylurea]",10.7,2,–
"CC(=O)NCC1CCN(Cc2cc(Oc3cnc(N4CCN(CCC5(C(=O)O)CC5)CC4)nc3)nc(-c3cc(Cl)cc(Cl)c3)c2)CC1 [Example 173, 1-(2-(4-(5-((4-((4-(acetamidomethyl)piperidin-1-yl)methyl)-6-(3,5-dichlorophenyl)pyridin-2-yl)oxy)pyrimidin-2-yl)piperazin-1-yl)ethyl)cyclopropanecarboxylic acid]",–,1.26,0.398
"CC(=O)NCC1CCN(Cc2cc(Oc3ccc(N4CCN(CCC(C)C(=O)O)CC4)nc3)nc(-c3cc(Cl)cc(Cl)c3)c2)CC1 (stereo not drawn) [Example 174, 4-(4-(5-((4-((4-(acetamidomethyl)piperidin-1-yl)methyl)-6-(3,5-dichlorophenyl)pyridin-2-yl)oxy)pyridin-2-yl)piperazin-1-yl)-2-methylbutanoic acid]",9.2,20,–
"COC(=O)NC(=O)CCN1CCN(c2ccc(Oc3cc(CN4CCC(CNC(C)=O)CC4)cc(-c4cc(Cl)cc(Cl)c4)n3)cn2)CC1 [Example 176, methyl (3-(4-(5-((4-((4-(acetamidomethyl)piperidin-1-yl)methyl)-6-(3,5-dichlorophenyl)pyridin-2-yl)oxy)pyridin-2-yl)piperazin-1-yl)propanoyl)carbamate]",9,3.98,–
"O=C(O)CC1CCN(Cc2cc(Oc3cnc(N4CCN(CC(O)CO)CC4)nc3)nc(-c3cc(Cl)cc(Cl)c3)c2)CC1 (stereo not drawn) [Example 177, 2-(1-((2-(3,5-dichlorophenyl)-6-((2-(4-(2,3-dihydroxypropyl)piperazin-1-yl)pyrimidin-5-yl)oxy)pyridin-4-yl)methyl)piperidin-4-yl)acetic acid]",9.2,20,–
"CC(=O)NCC1CCN(Cc2cc(Oc3ccc(N4CC[N+](C)(O)CC4)nc3)nc(-c3cc(Cl)cc(Cl)c3)c2)CC1 [Example 178, 4-(5-((4-((4-(Acetamidomethyl)piperidin-1-yl)methyl)-6-(3,5-dichlorophenyl)pyridin-2-yl)oxy)pyridin-2-yl)-1-methylpiperazine1-oxide]",8.9,< 2.51,–
"CC(=O)NCC1CCN(Cc2cc(Oc3ccc(N4CC[N+](CCO)(CCO)CC4)nc3)nc(-c3cc(Cl)cc(Cl)c3)c2)CC1 [Example 179, 1-(4-(5-((4-((4-(Acetamidomethyl)piperidin-1-yl)methyl)-6-(3,5-dichlorophenyl)pyridin-2-yl)oxy)pyridin-2-yl)-1-(2-hydroxyethyl)piperazin-1-ium-1-yl)-2-hydroxyethan-1-ide]",8.8,12.6,–
